Assay results from patent US20220236254A1, “BITTER TASTE RECEPTOR BLOCKERS AND METHODS OF THEIR IDENTIFICATION” (Firmenich Incorporated, priority 2019, published 2022).

How the values were obtained:
Type in all cases: cell-based
[1] = biological target: T1, polypeptide identified herein as SEQ ID NO: 2 (hT2R44) (Homo sapiens, UniProt P59541, F252L); experiment: Bitterness antagonism: PMFs antagonizing limonin on cells expressing the receptor; details: limonin 25 μM
T1 construct: expressed in transfected cells; host or cells: cells expressing a promiscuous G protein (G16g44)
T1 sequence (P59541 1-319 F252L): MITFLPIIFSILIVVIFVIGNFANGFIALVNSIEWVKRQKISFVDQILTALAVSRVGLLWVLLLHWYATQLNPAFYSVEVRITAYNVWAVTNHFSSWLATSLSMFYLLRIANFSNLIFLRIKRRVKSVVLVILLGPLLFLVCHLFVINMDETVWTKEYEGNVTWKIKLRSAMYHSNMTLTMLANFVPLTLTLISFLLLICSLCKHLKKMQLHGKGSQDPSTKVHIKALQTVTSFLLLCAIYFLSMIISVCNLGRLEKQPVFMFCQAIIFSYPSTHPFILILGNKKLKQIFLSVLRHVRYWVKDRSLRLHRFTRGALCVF
Procedure: (§1) Cells expressing a promiscuous G protein (G16g44) were transfected using TransIT-293 (Mirus) with expression vectors encoding 22 functional biter receptor cDNAs, with one receptor per transfection. The cells were transfected directly in 384-well format high-density plates and incubated for 28 hours. Later, cells were loaded with the Ca-specific dye Fluo4-AM. After an incubation of 60 minutes, excess dye is washed off, and cells are stimulated with respective bitter agonists while simultaneously recording changes in intracellular fluorescence using a FLIPR instrument. Bitter agonist and responding receptors were identified and respective stable bitter receptor cell lines were then used in the same assay to perform full dose-response analysis with the respective bitter agonists.
Certain PMFs were tested for their ability to antagonize binding of limonin to cells expressing the polypeptide identified herein as SEQ ID NO: 2.

SEQ ID NO: 1 (hT2R80) = biological target: T2, SEQ ID NO: 1 (hT2R80) (Homo sapiens, UniProt Q9NYW2); experiment: Bitter receptor identification, FLIPR calcium assay with bitter agonist; details: concentration range of 12.5 μM to 50 μM; cells expressing SEQ ID NO: 1
T2 construct: expressed in transfected cells; host or cells: cells expressing a promiscuous G protein (G16g44)
T2 sequence (Q9NYW2 1-309): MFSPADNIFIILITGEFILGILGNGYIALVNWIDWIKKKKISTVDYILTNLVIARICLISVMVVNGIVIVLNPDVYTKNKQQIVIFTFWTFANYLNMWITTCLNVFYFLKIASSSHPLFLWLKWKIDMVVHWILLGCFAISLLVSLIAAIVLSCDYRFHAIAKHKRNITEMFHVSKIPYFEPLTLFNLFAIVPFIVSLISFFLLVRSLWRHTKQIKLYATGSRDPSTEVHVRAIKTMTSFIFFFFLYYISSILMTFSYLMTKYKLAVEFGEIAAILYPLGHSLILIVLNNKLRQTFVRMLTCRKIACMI
Procedure: as §1, with “([…])” for “(G16g44)”, “agonists. The above protocol was carried out using limonin as a non-limiting example of a bitter agonist. […] The five expressed receptor proteins correspond to the amino acid sequences identified herein as SEQ ID NO: 1, 2, 3, 4, and 5.” for “agonists.”

SEQ ID NO: 2 (hT2R44) = biological target: T3, SEQ ID NO: 2 (hT2R44) (Homo sapiens, UniProt P59541, F252L); experiment: as above; details: concentration range of 12.5 μM to 50 μM; cells expressing SEQ ID NO: 2
T3 construct: expressed in transfected cells; host or cells: cells expressing a promiscuous G protein (G16g44)
T3 sequence (P59541 1-319 F252L): T1 sequence (P59541 1-319 F252L)
Procedure: as §1, with “([…])” for “(G16g44)”, “agonists. The above protocol was carried out using limonin as a non-limiting example of a bitter agonist. […] The five expressed receptor proteins correspond to the amino acid sequences identified herein as SEQ ID NO: 1, 2, 3, 4, and 5.” for “agonists.”

SEQ ID NO: 3 (hT2R51) = biological target: T4, SEQ ID NO: 3 (hT2R51) (Homo sapiens, UniProt P59533, A49P/I296V); experiment: as above; details: concentration range of 12.5 μM to 50 μM; cells expressing SEQ ID NO: 3
T4 construct: expressed in transfected cells; host or cells: cells expressing a promiscuous G protein (G16g44)
T4 sequence (P59533 1-333 A49P/I296V): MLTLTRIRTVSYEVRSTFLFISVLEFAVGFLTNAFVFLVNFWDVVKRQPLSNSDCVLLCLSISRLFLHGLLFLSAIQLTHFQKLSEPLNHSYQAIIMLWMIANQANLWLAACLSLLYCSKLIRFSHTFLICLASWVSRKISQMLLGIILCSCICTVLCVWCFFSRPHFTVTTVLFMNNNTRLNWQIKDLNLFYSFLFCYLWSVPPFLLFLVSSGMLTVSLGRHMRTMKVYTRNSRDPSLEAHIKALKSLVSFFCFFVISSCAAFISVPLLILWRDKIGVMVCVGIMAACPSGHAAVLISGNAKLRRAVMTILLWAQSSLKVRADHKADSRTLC
Procedure: as §1, with “([…])” for “(G16g44)”, “agonists. The above protocol was carried out using limonin as a non-limiting example of a bitter agonist. […] The five expressed receptor proteins correspond to the amino acid sequences identified herein as SEQ ID NO: 1, 2, 3, 4, and 5.” for “agonists.”

SEQ ID NO: 4 (hT2R65) = biological target: T5, SEQ ID NO: 4 (hT2R65) (Homo sapiens, UniProt P59542, V32I); experiment: as above; details: concentration range of 12.5 μM to 50 μM; cells expressing SEQ ID NO: 4
T5 construct: expressed in transfected cells; host or cells: cells expressing a promiscuous G protein (G16g44)
T5 sequence (P59542 1-299 V32I): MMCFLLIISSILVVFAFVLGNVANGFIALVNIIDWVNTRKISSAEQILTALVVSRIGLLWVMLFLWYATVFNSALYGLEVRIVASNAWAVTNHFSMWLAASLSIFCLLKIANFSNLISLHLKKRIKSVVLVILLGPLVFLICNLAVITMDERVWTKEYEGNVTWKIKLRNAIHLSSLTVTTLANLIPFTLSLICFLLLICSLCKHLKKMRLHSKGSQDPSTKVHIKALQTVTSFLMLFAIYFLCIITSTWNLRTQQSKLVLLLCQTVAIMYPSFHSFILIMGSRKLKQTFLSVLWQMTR
Procedure: as §1, with “([…])” for “(G16g44)”, “agonists. The above protocol was carried out using limonin as a non-limiting example of a bitter agonist. […] The five expressed receptor proteins correspond to the amino acid sequences identified herein as SEQ ID NO: 1, 2, 3, 4, and 5.” for “agonists.”

SEQ ID NO: 5 (hT2R75) = biological target: T6, SEQ ID NO: 5 (hT2R75) (Homo sapiens, UniProt P59540); experiment: as above; details: concentration range of 12.5 μM to 50 μM; cells expressing SEQ ID NO: 5
T6 construct: expressed in transfected cells; host or cells: cells expressing a promiscuous G protein (G16g44)
T6 sequence (P59540 1-309): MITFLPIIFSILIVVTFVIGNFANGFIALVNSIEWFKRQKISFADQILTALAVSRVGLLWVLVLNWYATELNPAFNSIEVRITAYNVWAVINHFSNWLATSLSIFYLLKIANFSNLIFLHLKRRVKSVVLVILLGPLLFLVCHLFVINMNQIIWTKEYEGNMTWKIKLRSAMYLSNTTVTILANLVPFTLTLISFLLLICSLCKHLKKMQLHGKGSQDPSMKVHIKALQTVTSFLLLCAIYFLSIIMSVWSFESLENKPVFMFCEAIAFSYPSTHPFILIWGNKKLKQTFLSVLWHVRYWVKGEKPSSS
Procedure: as §1, with “([…])” for “(G16g44)”, “agonists. The above protocol was carried out using limonin as a non-limiting example of a bitter agonist. […] The five expressed receptor proteins correspond to the amino acid sequences identified herein as SEQ ID NO: 1, 2, 3, 4, and 5.” for “agonists.”

[2] = antagonist 200 μM (no antagonist: 98)

Compound: COc1ccc(-c2cc(=O)c3c(OC)c(OC)c(OC)c(OC)c3o2)cc1
- % Limonin Activation ([1]; antagonist 50 μM (no antagonist: 98)): 76%

Compound: COc1cc(-c2cc(=O)c3c(OC)c(OC)c(OC)cc3o2)ccc1O
- % Limonin Activation [1, 2]: 64%

Compound: COc1ccc(-c2cc(=O)c3c(OC)c(OC)c(OC)cc3o2)cc1OC
- % Limonin Activation [1, 2]: 70%

Compound: COc1ccc(-c2oc3c(OC)c(OC)c(OC)c(OC)c3c(=O)c2OC)cc1OC
- % Limonin Activation [1, 2]: 79%

Compound: COc1ccc(-c2cc(=O)c3c(OC)c(OC)c(OC)c(OC)c3o2)cc1OC
- % Limonin Activation [1, 2]: 74%

Compound: CC1(C)O[C@H]2CC(=O)OC[C@]23[C@H]2CC[C@@]4(C)[C@H](c5ccoc5)OC(=O)[C@H]5O[C@]54[C@]2(C)C(=O)C[C@@H]13 [limonin]
- dose response of receptor to bitter agonist (SEQ ID NO: 1 (hT2R80)): positive dose response
- dose response of receptor to bitter agonist (SEQ ID NO: 2 (hT2R44)): positive dose response
- dose response of receptor to bitter agonist (SEQ ID NO: 3 (hT2R51)): positive dose response
- dose response of receptor to bitter agonist (SEQ ID NO: 4 (hT2R65)): positive dose response
- dose response of receptor to bitter agonist (SEQ ID NO: 5 (hT2R75)): positive dose response

Compound: COc1ccc(-c2oc3cc(OC)c(OC)c(OC)c3c(=O)c2OC)cc1OC
- % Limonin Activation ([1]; antagonist 100 μM (no antagonist: 98)): 77%
